Where two headings read alike, the source gives them in different places.
Tests used:
[1] = zahn-wellens test, 336 h
Experimental: The biological degradability was determined by means of the Zahn-Wellens Test (OECD Guidelines for testing of Chemicals 302B, Adopted by the Council on 17th Jul. 1992).

[2] = cited from earlier work
[3] = cited from earlier work; remark: listed apart in the source
[4] = G. Antlsperger, 6th International Symposium on Cyclodextrins, 1992; cited from earlier work

With “hydroxypropyl-γ-cyclodextrin [Hp-gamma-CD(0.9)]” the “Degradation ZaWe-14d” value [1] was 25%.
For `OC[C@H]1O[C@@H]2O[C@H]3[C@H](O)[C@@H](O)[C@@H](O[C@H]4[C@H](O)[C@@H](O)[C@@H](O[C@H]5[C@H](O)[C@@H](O)[C@@H](O[C@H]6[C@H](O)[C@@H](O)[C@@H](O[C@H]7[C@H](O)[C@@H](O)[C@@H](O[C@H]8[C@H](O)[C@@H](O)[C@@H](O[C@H]9[C@H](O)[C@@H](O)[C@@H](O[C@H]1[C@H](O)[C@H]2O)O[C@@H]9CO)O[C@@H]8CO)O[C@@H]7CO)O[C@@H]6CO)O[C@@H]5CO)O[C@@H]4CO)O[C@@H]3CO` [γ-CD, γ-cyclodextrin], the solubility in water ([2]; native γ-cyclodextrin) is listed as 18.7 % by weight, the “solubility in water” value ([2]; prior art statement) is listed as “comparatively poorly soluble in water” and the “precipitation of complexes at higher concentrations” value ([3]; U.S. Pat. No. 4,764,604) is listed as “frequently precipitate out at higher concentrations”. For the same compound, the “solubilizing capacity / properties” value ([3]; prior art statement) was “comparatively low” and the “toxicological properties” value [4] was “favorable toxicological properties”.
With “Acetyl-γ-CD (DS, 0.83) [Ex. 2 Ac-gamma-CD(0.83)]” the “Degradation ZaWe-14d” value [1] was 98%.
For “Methyl-γ-cyclodextrin (DS,1.8) [Me-gamma-CD(1.8)]”, the “Degradation ZaWe-14d” value [1] was 14%.

Reference: patent US5654422A, “Acylated γ-cyclodextrins” (priority 1994, dated 1997)
